Assay results taken from ChEMBL document CHEMBL5518238, “Structure-Activity Relationship (SAR) Studies of Novel Monovalent AR/AR-V7 Dual Degraders with Potent Efficacy against Advanced Prostate Cancer” (J Med Chem, 2024).
The source made the active and inactive calls. The rule behind the calls is not given here.

Test system: CWR22R
Experiment: Antitumor activity against human 22Rv1 cells xenografted in NSG mouse assessed as change in tumor volume at 30 mg/kg, IG administered once daily for 21 days
Type: functional, organism-based
Conditions: time 21.0 day
For `C[C@]12CC[C@H](O)CC1=CC[C@@H]1[C@@H]2CC[C@]2(C)C(c3cccnc3)=CC[C@@H]12` [ABIRATERONE], the Activity was “Active”. With `CNC(=O)c1ccc(N2C(=S)N(c3ccc(C#N)c(C(F)(F)F)c3)C(=O)C2(C)C)cc1F` [ENZALUTAMIDE] the Activity was “Active”.

Test system: not listed separately
Experiment: Antiproliferative activity against human L02 cells assessed as inhibition of cell growth incubated for 48 hrs by CCK-8 assay
Type: toxicity, cell-based
Conditions: not given
Work on `C[C@]12CC[C@H](O)CC1=CC[C@@H]1[C@@H]2CC[C@]2(C)C(n3cnc4ccccc43)=CC[C@@H]12` [GALETERONE] yielded an IC50 at 48 h of over 100 µM.

Test system: CWR22R
Experiment: cells
Type: functional, cell-based
Conditions: Homo sapiens, 22Rv1, 48 h
Description: Antiproliferative activity against AR/AR-V7 positive human 22Rv1 cells assessed as inhibition of cell growth incubated for 48 hrs by CCK-8 assay
Molecule `CC1(C)C(=O)N(c2ccc(C#N)c(C(F)(F)F)c2)C(=O)N1CCNc1ccc(C#N)c2ncccc12` has an IC50 of 2.8 µM. Work on `CC1(C)C(=O)N(c2ccc([N+](=O)[O-])c(C(F)(F)F)c2)C(=O)N1CC(=O)NCc1ccccn1` yielded an IC50 of 26 µM. In the case of `CC1(C)C(=O)N(c2ccc(C#N)c(C(F)(F)F)c2)C(=O)N1CCNc1ccnc2ccccc12`, the IC50 is reported as 8.7 µM. `CC1(C)C(=O)N(c2ccc(C#N)c(C(F)(F)F)c2)C(=O)N1CCNc1ccc2ccncc2c1` gave an IC50 of 2.3 µM. `CC1(C)C(=O)N(c2ccc(C#N)c(C(F)(F)F)c2)C(=O)N1CCn1cc(C(F)(F)F)cn1` gave an IC50 of 8.9 µM. For `CC1(C)C(=O)N(c2ccc(C#N)c(C(F)(F)F)c2)C(=O)N1Cn1cc(C(F)(F)F)cn1`, the IC50 was 11.3 µM. For `CC1(C)C(=O)N(c2ccc(C#N)c(C(F)(F)F)c2)C(=O)N1CCN(c1ccc2ncccc2c1)c1ccc2ncccc2c1`, the IC50 was 6.8 µM. Molecule `CC1(C)C(=O)N(c2ccc(C#N)c(C(F)(F)F)c2)C(=O)N1CCNc1cccc2ccncc12` has an IC50 of 7.8 µM. `CC1(C)C(=O)N(c2ccc(C#N)c(C(F)(F)F)c2)C(=O)N1CCNc1ccc2ccccc2n1` showed an IC50 of 11.7 µM. With `C[C@]12CC[C@H](O)CC1=CC[C@@H]1[C@@H]2CC[C@]2(C)C(n3cnc4ccccc43)=CC[C@@H]12` [GALETERONE] the IC50 was 11.6 µM. Molecule `Cc1ccc(NCCN2C(=O)N(c3ccc(C#N)c(C(F)(F)F)c3)C(=O)C2(C)C)c2cccnc12` has an IC50 of 9.8 µM. Work on `CC1(C)C(=O)N(c2ccc(C#N)c(C(F)(F)F)c2)C(=O)N1CC(=O)Nc1ccnc2ccccc12` yielded an IC50 of 13.8 µM. Molecule `CC1(C)C(=O)N(c2ccc(C#N)c(C(F)(F)F)c2)C(=O)N1CCN(c1ccc2ncncc2c1)c1ccc2ncncc2c1` has an IC50 of 15 µM. `CC1(C)C(=O)N(c2ccc(C#N)c(C(F)(F)F)c2)C(=O)N1CCNc1ccc2cccnc2c1` showed an IC50 of 2.2 µM. Molecule `CC1(C)C(=O)N(c2ccc(C#N)c(C(F)(F)F)c2)C(=O)N1CCNc1cnc2ccccc2c1` has an IC50 of 49.5 µM. With `CC1(C)C(=O)N(c2ccc([N+](=O)[O-])c(C(F)(F)F)c2)C(=O)N1CC(=O)NCc1cccnc1` the IC50 was over 50 µM. Molecule `CC1(C)C(=O)N(c2ccc(C#N)c(C(F)(F)F)c2)C(=O)N1CCn1cc(F)cn1` has an IC50 of 7.9 µM. Molecule `CC1(C)C(=O)N(c2ccc(C#N)c(C(F)(F)F)c2)C(=O)N1Cn1cc(F)cn1` has an IC50 of 14.5 µM. Molecule `CC1(C)C(=O)N(c2ccc(C#N)c(C(F)(F)F)c2)C(=O)N1CC(=O)NCc1ccccn1` has an IC50 of 33.7 µM. Work on `CC1(C)C(=O)N(c2ccc([N+](=O)[O-])c(C(F)(F)F)c2)C(=O)N1CC(=O)Nc1ccccn1` yielded an IC50 of over 50 µM. Work on `CC1(C)C(=O)N(c2ccc(C#N)c(C(F)(F)F)c2)C(=O)N1CC(=O)Nc1cccc2cccnc12` yielded an IC50 of 23.5 µM. `CC1(C)C(=O)N(c2ccc([N+](=O)[O-])c(C(F)(F)F)c2)C(=O)N1CC(=O)Nc1cccnc1` gave an IC50 of over 50 µM. In the case of `N#Cc1ccc(O[C@H]2CC[C@H](NC(=O)c3ccc(N4CCC(CN5CCN(c6cc7c(cc6F)C(=O)N(C6CCC(=O)NC6=O)C7=O)CC5)CC4)nn3)CC2)cc1Cl` (stereo not given in full) [BAVDEGALUTAMIDE], the IC50 is reported as 3.9 µM. `CC1(C)C(=O)N(c2ccc(C#N)c(C(F)(F)F)c2)C(=O)N1CCN(c1ccc(-c2ccncc2)cc1)c1ccc(-c2ccncc2)cc1` showed an IC50 of over 50 µM. With `CC1(C)C(=O)N(c2ccc(C#N)c(C(F)(F)F)c2)C(=O)N1CCNc1ccc2ccccc2c1` the IC50 was over 50 µM. Molecule `CC1(C)C(=O)N(c2ccc(C#N)c(C(F)(F)F)c2)C(=O)N1CCNc1cncnc1` has an IC50 of 43.9 µM. Work on `CC1(C)C(=O)N(c2ccc(C#N)c(C(F)(F)F)c2)C(=O)N1CC(=O)NCc1cccnc1` yielded an IC50 of 22.1 µM. Molecule `CC1(C)C(=O)N(c2ccc(C#N)c(C(F)(F)F)c2)C(=O)N1CC(=O)Nc1ccc2ncccc2c1` has an IC50 of 35.8 µM. `CC1(C)C(=O)N(c2ccc(C#N)c(C(F)(F)F)c2)C(=O)N1CCCn1ccc2cc(F)ccc21` gave an IC50 of 13.6 µM. `CC1(C)C(=O)N(c2ccc(C#N)c(C(F)(F)F)c2)C(=O)N1CCn1cnc(C(F)(F)F)n1` gave an IC50 of 10.3 µM. `CC1(C)C(=O)N(c2ccc(C#N)c(C(F)(F)F)c2)C(=O)N1CCNc1cccc2ccccc12` showed an IC50 of 19.5 µM. In the case of `CC1(C)C(=O)N(c2ccc(C#N)c(C(F)(F)F)c2)C(=O)N1CCNc1ccc([N+](=O)[O-])c2ncccc12`, the IC50 is reported as 3.1 µM. Work on `CC1(C)C(=O)N(c2ccc(C#N)c(C(F)(F)F)c2)C(=O)N1CCn1cc(Br)cn1` yielded an IC50 of 46.3 µM. Work on `CC1(C)C(=O)N(c2ccc(C#N)c(C(F)(F)F)c2)C(=O)N1CC(=O)Nc1cnc2ccccc2c1` yielded an IC50 of 14.6 µM. For `CNC(=O)c1ccc(N2C(=S)N(c3ccc(C#N)c(C(F)(F)F)c3)C(=O)C2(C)C)cc1F` [ENZALUTAMIDE], the IC50 was 15.6 µM. For `CC(C)(c1ccc(OC[C@H](O)CO)cc1)c1ccc(OC[C@H](O)CCl)cc1`, the IC50 was 40.4 µM. `CC1(C)C(=O)N(c2ccc(C#N)c(C(F)(F)F)c2)C(=O)N1CCNc1cccc2ncccc12` gave an IC50 of 1.3 µM. With `CC1(C)C(=O)N(c2ccc(C#N)c(C(F)(F)F)c2)C(=O)N1CCNc1ccc2cnccc2c1` the IC50 was 5.1 µM. Work on `CC1(C)C(=O)N(c2ccc(C#N)c(C(F)(F)F)c2)C(=O)N1CCNc1cccc2cccnc12` yielded an IC50 of over 50 µM. In the case of `CC1(C)C(=O)N(c2ccc(C#N)c(C(F)(F)F)c2)C(=O)N1CCNc1ccc2ncccc2c1`, the IC50 is reported as 5.4 µM. With `CC1(C)C(=O)N(c2ccc(C#N)c(C(F)(F)F)c2)C(=O)N1CCCNc1cccc2ncccc12` the IC50 was 25.7 µM. `CC1(C)C(=O)N(c2ccc(C#N)c(C(F)(F)F)c2)C(=O)N1CCN(c1ccc2nccnc2c1)c1ccc2nccnc2c1` gave an IC50 of 12.2 µM. Work on `CC1(C)C(=O)N(c2ccc(C#N)c(C(F)(F)F)c2)C(=O)N1CC(=O)Nc1cccc2ncccc12` yielded an IC50 of 24.9 µM. In the case of `CC1(C)C(=O)N(c2ccc(C#N)c(C(F)(F)F)c2)C(=O)N1Cn1cc(Br)cn1`, the IC50 is reported as 23.2 µM. For `CC1(C)C(=O)N(c2ccc(C#N)c(C(F)(F)F)c2)C(=O)N1CCNc1cccnc1`, the IC50 was 11.9 µM. For `CC1(C)C(=O)N(c2ccc(C#N)c(C(F)(F)F)c2)C(=O)N1CC(=O)Nc1ccccn1`, the IC50 was 17 µM. For `CC1(C)C(=O)N(c2ccc(C#N)c(C(F)(F)F)c2)C(=O)N1CCN(c1ccc2cccnc2c1)c1ccc2cccnc2c1`, the IC50 was over 50 µM. `CC1(C)C(=O)N(c2ccc(C#N)c(C(F)(F)F)c2)C(=O)N1CCCn1cc(F)cn1` gave an IC50 of 3.7 µM. `CC1(C)C(=O)N(c2ccc(C#N)c(C(F)(F)F)c2)C(=O)N1CCCNc1cccc2ccncc12` gave an IC50 of 21.8 µM. For `CC1(C)C(=O)N(c2ccc(C#N)c(C(F)(F)F)c2)C(=O)N1CC(=O)Nc1cccnc1`, the IC50 was 10.8 µM. `Cc1ccc(NCCCN2C(=O)N(c3ccc(C#N)c(C(F)(F)F)c3)C(=O)C2(C)C)c2cccnc12` showed an IC50 of 36.8 µM. `CC1(C)C(=O)N(c2ccc(C#N)c(C(F)(F)F)c2)C(=O)N1CCCn1cc(C(F)(F)F)cn1` showed an IC50 of 19.8 µM. In the case of `CC1(C)C(=O)N(c2ccc(C#N)c(C(F)(F)F)c2)C(=O)N1CCCNc1ccc2ccncc2c1`, the IC50 is reported as 22 µM. For `CC1(C)C(=O)N(c2ccc(C#N)c(C(F)(F)F)c2)C(=O)N1CCNc1ncccn1`, the IC50 was 24.9 µM. In the case of `CC1(C)C(=O)N(c2ccc(C#N)c(C(F)(F)F)c2)C(=O)N1CCNc1cnccn1`, the IC50 is reported as 10.6 µM. With `CC1(C)C(=O)N(c2ccc(C#N)c(C(F)(F)F)c2)C(=O)N1CCNc1ccccn1` the IC50 was 13.1 µM. `CC1(C)C(=O)N(c2ccc(C#N)c(C(F)(F)F)c2)C(=O)N1CCCNc1ccc2ncccc2c1` showed an IC50 of 27.3 µM. Work on `CC1(C)C(=O)N(c2ccc(C#N)c(C(F)(F)F)c2)C(=O)N1CCCn1cc(Br)cn1` yielded an IC50 of 2 µM.

Test system: DU-145
Experiment: Antiproliferative activity against AR-negative human DU-145 cells assessed as inhibition of cell growth incubated for 48 hrs by CCK-8 assay
Type: functional, cell-based
Conditions: DU-145, 48 h
`CC1(C)C(=O)N(c2ccc(C#N)c(C(F)(F)F)c2)C(=O)N1CCNc1ccc(C#N)c2ncccc12` showed an IC50 of over 50 µM. `CC1(C)C(=O)N(c2ccc(C#N)c(C(F)(F)F)c2)C(=O)N1CCNc1ccc2ccncc2c1` showed an IC50 of over 50 µM. `CC1(C)C(=O)N(c2ccc(C#N)c(C(F)(F)F)c2)C(=O)N1CCNc1cccc2ccncc12` showed an IC50 of over 50 µM. With `Cc1ccc(NCCN2C(=O)N(c3ccc(C#N)c(C(F)(F)F)c3)C(=O)C2(C)C)c2cccnc12` the IC50 was over 50 µM. `CC1(C)C(=O)N(c2ccc(C#N)c(C(F)(F)F)c2)C(=O)N1CCNc1ccc([N+](=O)[O-])c2ncccc12` gave an IC50 of over 50 µM. In the case of `CC1(C)C(=O)N(c2ccc(C#N)c(C(F)(F)F)c2)C(=O)N1CCNc1ccc2cnccc2c1`, the IC50 is reported as 33 µM.

Test system: LNCaP
Experiment: Antiproliferative activity against human LNCaP cells assessed as inhibition of cell growth incubated for 48 hrs by CCK-8 assay
Type: functional, cell-based
Conditions: not given
In the case of `C[C@]12CC[C@H](O)CC1=CC[C@@H]1[C@@H]2CC[C@]2(C)C(n3cnc4ccccc43)=CC[C@@H]12` [GALETERONE], the IC50 is reported as 2 µM.

Test system: not listed separately
Experiment: Toxicity in NSG mouse xenografted with human 22Rv1 cells assessed as effect on body weight at 30 mg/kg, IG administered once daily for 21 days
Type: organism-based, CWR22R
Conditions: in vivo, po, 504 h, time 21 day
For `C[C@]12CC[C@H](O)CC1=CC[C@@H]1[C@@H]2CC[C@]2(C)C(c3cccnc3)=CC[C@@H]12` [ABIRATERONE], the Activity was “Non-Toxic”. In the case of `CNC(=O)c1ccc(N2C(=S)N(c3ccc(C#N)c(C(F)(F)F)c3)C(=O)C2(C)C)cc1F` [ENZALUTAMIDE], the Activity is reported as “Non-Toxic”.
